Patent US9233090B2, “Cysteine and food intake” (Nestec S.A., priority 2010, dated 2016)

Tests used:
Assay type in all cases: in vivo, rat
[1] = Skeletal muscle and organ weights of old rats fed supplemented diets; settings: for Colon weight / EDL weight / Gastrocnemius weight / Kidneys weight / Liver weight / Small intestine weight / Soleus weight / Tibialis weight: end of supplementation
Source text: (§1) A cohort of male Wistar rats born and breed in a non-specific-pathogen-free animal facility (Unité de Nutrition Comparée, INRA Theix) was used for the study. When rats were 18 month old they were weighted monthly to evaluate their body weight change and blood was sampled in order to quantify inflammatory markers (acute phase proteins: α2-macroglobulin and fibrinogen). At the age of 21 months, rats were divided in two groups matched for body weight, body weight loss, and inflammatory status. Rats were fed with supplemented diets, starting at the age of 21 months and for 14 weeks. The cysteine diet consisted in the commercial pelleted diet A04 (SAFE/UAR, Scientific Animal Food and Engineering, Villemoisson-sur-Orge, France) supplemented with 4.0 g of L-cysteine (Sigma) per kg, and the control diet was supplemented with 2.9 g of L-alanine (Jerafrance) per kg (iso-nitrogenous diets). Experimental diets have been prepared at the Unite Préparation Aliments Expérimentaux, INRA Jouy-en-Josas.

old rats [2] = assay: Food intake of old rats fed supplemented diets for 14 weeks; settings: for decrease in food intake per week: male Wistar rats, supplemented diet from age 21 months for 14 weeks, linear regression
Source text: as §1
Food intake (FIG. 4) decreased with time and was lower for the alanine diet.

[3] = Body weight of old rats fed supplemented diets; settings: for Final BW: body weight at end of supplementation; for Initial BW: body weight at start of supplementation (baseline), age 21 months; for BW change: rat, in vivo
Source text: as §1
The decrease accelerated at the end of the experiment since body weights of the two last weeks were different from each of the previous ones.

old rats [4] = assay: Survival of old rats fed supplemented diets (Kaplan-Meier, log-rank test); settings: male Wistar rats, supplemented diet from age 21 months for 14 weeks; log-rank test=0.054, P=0.816
Source text: as §1
Survival curves were generated by Kaplan-Meier method (FIG. 2) and compared by the log-rank test in order to analyze the effect of cysteine supplementation on mortality.

SMILES	Colon weight [1]	EDL weight [1]	Gastrocnemius weight [1]	Kidneys weight [1]	Liver weight [1]	Small intestine weight [1]	Soleus weight [1]	Tibialis weight [1]	decrease in food intake per week (old rats [2])	Final BW [3]	Initial BW [3]	BW change [3]	mortality rate (old rats [4])	liver weight compared with control rats ([1]; cysteine supplemented rats vs alanine control)	effect on decrease in food intake associated with aging (old rats [2]; 4 g cysteine per kg supplemented diet, rats about 22.5 months old)
C[C@H](N)C(=O)O [Alanine, L-alanine, reference compound]	2.68 ± 0.06 g	222 ± 4 mg	2.51 ± 0.04 g	4.32 ± 0.19 g	18.4 ± 0.5 g	11.4 ± 0.3 g	177 ± 3 mg	888 ± 16 mg	0.96 % per week	595 ± 13 g	657 ± 10 g	−7.03 ± 1.60 %/13 wk	–	–	–
N[C@@H](CS)C(=O)O [Cysteine, L-cysteine]	2.76 ± 0.07 g	228 ± 4 mg	2.51 ± 0.04 g	4.31 ± 0.17 g	20.0 ± 0.4 g	12.0 ± 0.2 g	178 ± 4 mg	889 ± 18 mg	unchanged	613 ± 12 g	661 ± 10 g	−6.27 ± 1.18 %/13 wk	did not change	higher liver weight than control rats	blunts the decrease in food intake
